Tested on: intertrigo
Assay: Topical application of the skin salve to patients suffering from intertrigo
Type: in vivo, human
Details: Example 2: person with diabetes, underside of breasts; before use of the skin salve
Protocol: In this experiment the skin salve made in Example 1 was evaluated on a person suffering from diabetes and intertrigo on the underside of their breasts. The intertrigo had caused the skin to be inflamed, burned, and was raw in some areas. This skin condition was painful and was aggravated by the patient's bra, heat, and sweat. Additionally, the intertrigo was an unsightly rash.
This patient had treated their intertrigo with a variety of over-the-counter salves and powders without success.
This patient topically applied the skin salve of this invention which was made by the procedure described in Example 1 to the inflamed skin under their breasts on two consecutive evenings after taking a bath. […]
In this experiment the skin salve made in Example 1 was evaluated on another person suffering from diabetes and intertrigo on the underside of their breasts. […]
In this experiment the skin salve made in Example 1 was evaluated on another person suffering from intertrigo on the underside of their breasts. […]
In this experiment the skin salve made in Example 1 was evaluated on a person suffering from intertrigo on the underside of their breasts. […]
In this experiment the skin salve made in Example 1 was evaluated on a person suffering from intertrigo on the underside of their breasts and the underside of their belly. […]

## CC(C)O [isopropyl alcohol]
  effect on intertrigo of the patient's earlier treatments: without any relief

Source: patent US9463211B2, “Skin salve for treating intertrigo” (priority 2007, dated 2016)
